# According to PMC9414972, “α-Glucosidase and α-Amylase Inhibitory Potentials of Quinoline–1,3,4-oxadiazole Conjugates Bearing 1,2,3-Triazole with Antioxidant Activity, Kinetic Studies, and Computational Validation” (Pharmaceuticals, 2022):
# Where two headings read alike, the source gives them in different places.
# How the values were obtained:
# α-glucosidase [1] = biological target: T1, α-glucosidase (Saccharomyces cerevisiae, UniProt P38158); assay: biochemical; conditions: pNPG substrate, pH 6.8, 37 °C; read-out: IC50 α-Glucosidase
# T1 construct: purchased Merck
# T1 sequence (P38158 whole entry): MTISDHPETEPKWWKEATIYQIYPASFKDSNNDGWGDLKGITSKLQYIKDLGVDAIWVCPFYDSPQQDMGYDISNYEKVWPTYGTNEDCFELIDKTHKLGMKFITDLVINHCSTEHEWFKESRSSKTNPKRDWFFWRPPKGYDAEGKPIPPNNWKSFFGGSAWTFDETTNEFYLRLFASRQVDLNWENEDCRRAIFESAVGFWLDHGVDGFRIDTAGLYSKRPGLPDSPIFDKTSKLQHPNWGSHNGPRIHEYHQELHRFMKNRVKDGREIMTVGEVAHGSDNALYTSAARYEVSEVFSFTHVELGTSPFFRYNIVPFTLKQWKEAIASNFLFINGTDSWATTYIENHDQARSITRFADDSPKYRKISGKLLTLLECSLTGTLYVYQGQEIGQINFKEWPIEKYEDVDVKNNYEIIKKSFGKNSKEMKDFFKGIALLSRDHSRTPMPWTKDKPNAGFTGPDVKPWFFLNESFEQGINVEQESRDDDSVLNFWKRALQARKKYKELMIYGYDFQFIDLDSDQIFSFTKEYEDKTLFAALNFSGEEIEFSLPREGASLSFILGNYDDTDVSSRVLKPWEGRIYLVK
# Method: The α-glucosidase inhibitory activity was evaluated using a previous method with slight modifications.
# [2] = biological target: T2, porcine pancreatic amylase (Sus scrofa, UniProt P00690); assay: α-Amylase inhibitory activity (starch/DNS); assay type: biochemical; conditions: porcine pancreatic amylase, starch, pH 6.9, 25 °C; read-out: IC50 α-Amylase
# T2 construct: purchased Merck
# T2 sequence (P00690 16-511): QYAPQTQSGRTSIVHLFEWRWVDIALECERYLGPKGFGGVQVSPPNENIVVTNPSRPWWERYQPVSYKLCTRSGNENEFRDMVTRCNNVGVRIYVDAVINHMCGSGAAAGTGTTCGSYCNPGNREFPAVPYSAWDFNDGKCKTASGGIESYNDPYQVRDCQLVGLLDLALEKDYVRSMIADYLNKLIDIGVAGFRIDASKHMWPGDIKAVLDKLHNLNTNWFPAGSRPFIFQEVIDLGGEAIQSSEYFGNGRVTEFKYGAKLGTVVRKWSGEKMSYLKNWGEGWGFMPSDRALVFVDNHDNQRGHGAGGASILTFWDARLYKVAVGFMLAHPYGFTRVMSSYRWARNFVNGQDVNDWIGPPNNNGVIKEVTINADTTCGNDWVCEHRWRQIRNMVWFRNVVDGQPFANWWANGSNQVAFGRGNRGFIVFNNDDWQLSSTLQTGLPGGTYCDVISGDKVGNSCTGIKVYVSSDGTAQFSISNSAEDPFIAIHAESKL
# Method: α-Amylase inhibitory activity was determined according to Ibitoye et al. with slight modifications. […] The reaction in the mixture was terminated with a 1 mL dinitrosalicylate reagent before boiling for 10 min. The cooled mixture was diluted with 5 mL distilled water, and the absorbance was read at 540 nm. The inhibitory activity was calculated using the formula below: % Inhibition=1−Absorbance of compound/Absorbance of control×100
# [3] = Nitric oxide (NO) scavenging activity; conditions: nitric oxide radical scavenging, 37 °C, 2 h
# Method: The screening of the present compound series for NO radical scavenging activity (Table 2) identified excellent NO scavengers.
# The antioxidant capacity of the compounds to scavenge nitric oxide radicals was determined using a modified version of the protocol by Kurian et al.. Briefly, 250 μL of sodium nitroprusside (10 mM) prepared in sodium phosphate buffer (pH 7.4) was added to 500 μL of the compound solution (62.5–500 μM) or distilled water (control). The resulting solution was incubated at 37 °C for 2 h. Then, 250 μL of Griess reagent was added to the reaction mixture before the absorbance was measured at 546 nm. The nitric oxide scavenging activity of the compounds was calculated with the formula: Nitric oxide scavenging (%)=1−Absorbance of compound/Absorbance of control×100
# [4] = Ferric reducing antioxidant power (FRAP); conditions: ferric reducing antioxidant power
# Method: FRAP is a ferric (Fe^3+) to ferrous (Fe^2+) ions reduction assay that measures a compound’s electron-donating capacity, i.e., the antioxidant’s reducing power.
# The mixture was incubated at 50 °C for 20 min, followed by acidification with 100 μL trichloroacetic acid (10%). After centrifugation at 3500 rpm for 10 min, 200 μL of the supernatant was transferred into another test tube containing 200 μL of distilled water and 0.8 mL of FeCl3 (0.1%). Finally, the absorbance was read at 700 nm, and the total reductive antioxidant power was calculated thus: Ferric reducing antioxidant power (%)=Absorbance of compound/Absorbance of 500µM gallic acid×100
# [5] = DPPH radical scavenging activity; conditions: DPPH radical scavenging, 30 min, 25 °C
# Method: The DPPH assay is used conventionally to quantify a compound’s ability to trap free radicals.
# The compounds were evaluated for their ability to scavenge stable DPPH radicals, using a modification of the method by Turkoglu et al..
# α-glucosidase [6] = biological target: T1, α-glucosidase; assay: Mode of α-glucosidase inhibition (enzyme kinetics, Lineweaver–Burk); assay type: biochemical; conditions: Lineweaver–Burk plots; inhibitor 0, 75, 150, 300 µM; pNPG
# Excerpt: Understanding a drug’s mode of inhibiting its target is crucial to improve the drug’s activity profile and target specificity. Although orthosteric inhibition, in which the ligand binds at the target’s active site, dominates among currently available drugs, allosteric inhibitors (i.e., drugs binding at regions […] the active site) are desirable due to their reduced vulnerability to active site mutation or to displacement through native substrate overload at the active site. Accordingly, the mode of α-glucosidase inhibition was investigated for promising compounds 4b, 4i, 4j, 4k, 4l, 12k, and 12m, using a time-dependent para-nitrophenyl-[…] (pNPG) assay; the results are presented as Lineweaver–Burk plots (Figure 4). […] Conceivably, this can result in decreased systemic glucose concentration thus alleviating postprandial hyperglycemia and its associated complications.
# The mode of inhibition of α-glucosidase of the 4b, 4i, 4j, 4k, 4l, 12k, and 12m compounds was determined using the method described by Kazeem et al. 2013, with modifications. Briefly, 50 µL of the 4b, 4i, 4j, 4k, 4l, 12k, and 12m compounds at (0 µM, 75 µM, 150 µM and 300 µM) concentrations were preincubated with 100 µL of α-glucosidase solution for 10 min at 25 °C in one set of tubes. In another set of tubes, α-glucosidase was preincubated with 50 µL of phosphate buffer (pH 6.9). 25 µL of pNPG at increasing concentrations (0.125–4.0 mg/mL) was added to both sets of solution to start the reaction. Immediately, the absorbance of the resulting solution was monitored for 2 min in a spectrophotometer at 405 nm. The amount of 4-nitrophenol released was determined from a 4-nitrophenol standard curve and then converted to reaction velocities.
# α-glucosidase [7] = biological target: T1, α-glucosidase; set-up: method as in ref 22 (Taha et al.); conditions: ref 22 (Taha et al.), cited from earlier work
# α-glucosidase [8] = biological target: T1, α-glucosidase; set-up: method as in ref 23 (Izgi et al.); conditions: ref 23 (Izgi et al.); read-out: α-glucosidase inhibition IC50; cited from earlier work
# α-glucosidase [9] = biological target: T1, α-glucosidase; set-up: method as in ref 28 (Asemanipoor et al.); conditions: ref 28 (Asemanipoor et al.); read-out: α-glucosidase inhibition IC50; cited from earlier work
Structure (SMILES),IC50 (α-glucosidase [1]) [µM],IC50 [2] [µM],IC50 [3] [µM],melting point [°C],IC50 [4] [µM],IC50 [5] [µM],mode of α-glucosidase inhibition (α-glucosidase [6]),fold superior α-glucosidase inhibition compared with acarbose (α-glucosidase [7]) [fold],IC50 (α-glucosidase [7]; read-out: α-glucosidase inhibition IC50) [µM],IC50 (α-glucosidase [8]) [µM],IC50 (α-glucosidase [9]) [µM]
"Clc1ccc(CSc2nnc(COc3cccc4cccnc34)o2)cc1 [4l, 2-[(4-Chlorobenzyl)thio]-5-[(quinolin-8-yloxy)methyl]-1,3,4-oxadiazole]",25.2,> 500,> 500,101.4 to 104.2,> 500,77.7,non-competitive,–,–,–,–
"c1ccc(-n2cc(CSc3nnc(COc4cccc5cccnc45)o3)nn2)cc1 [12k, 2-{[(1-Phenyl-1H-1,2,3-triazol-4-yl)methyl]thio}-5-[(quinolin-8-yloxy)methyl]-1,3,4-oxadiazole]",22.5,> 500,> 500,122 to 128,> 500,85.7,non-competitive,–,–,–,–
"Fc1ccc(-n2cc(CSc3nnc(COc4cccc5cccnc45)o3)nn2)cc1 [12m, 2-{[(1-(4-Fluorophenyl)-1H-1,2,3-triazol-4-yl)methyl]thio}-5-[(quinolin-8-yloxy)methyl]-1,3,4-oxadiazole]",26.8,> 500,> 500,134 to 140,> 500,88.7,non-competitive,–,–,–,–
O=C(N/N=C/c1ccc(O)c(O)c1)c1ccc(-c2nnc(-c3ccc4ncccc4c3)o2)cc1 [A],–,–,–,–,–,–,–,15,2.6,–,–
c1ccc(-c2nnc(-c3c[nH]c4ncccc34)o2)cc1 [B],–,–,–,–,–,–,–,–,–,400,–
CCc1ccc(NC(=O)Cn2cc(COc3ccc(-c4nc5ccccc5[nH]4)cc3)nn2)cc1 [C],–,–,–,–,–,–,–,–,–,–,35
